PMC7352759, “S(+)-(2E)-N-(2-Hydroxypropyl)-3-Phenylprop-2-Enamide (KM-568): A Novel Cinnamamide Derivative with Anticonvulsant Activity in Animal Models of Seizures and Epilepsy” (International Journal of Molecular Sciences, 2020)

Assays:
[1] = Ames microplate format (MPF) assay, TA1537; settings: Salmonella typhimurium
Text: The Ames microplate format (MPF) mutagenicity assay (Xenometrix, Allschwil, Switzerland) was used to test KM-568 mutagenicity. Growth, exposure, and indicator media, positive control chemicals, and four Salmonella typhimurium strains TA98, TA100, TA1535 and TA1537 were included in the kit. TA100 and TA1535 strains detect base substitution mutations, whereas TA98 and TA1537 indicate frameshift mutations. The strains of bacteria included in a kit are in compliance with the Organization for Economic Cooperation and Development (OECD) 471 Guideline for Testing of Chemicals.
The assay is a liquid microplate modification of the traditional Salmonella test. During the procedure, bacteria are exposed to different concentrations of a test compound for 90 min in a medium containing sufficient histidine to support cell divisions. Then, the cultures are diluted in a pH indicator medium lacking histidine and aliquoted into 48 wells of a 384-well plate. Within 2 days, bacteria that have undergone reversion to amino acid prototrophy will form colonies. Products of bacteria metabolism reduce pH of the medium, changing the color of wells from purple to yellow.
The test procedure provided by Xenometrix and described in detail elsewhere was followed. Bacterial strains were grown overnight (14–16 h) in exposure medium in a shaker incubator and then exposed to KM-568 in 24-well plates for 90 min at 37 °C with agitation. Final KM-568 concentrations in the assay were 0.1, 0.2, and 0.5 mM. After preincubation, the cultures were diluted in the indicator medium and the contents of each 24-well culture were transferred to 48 wells on a 384-well plate and incubated further for 48 h at 37 °C without agitation. After the exposure, the number of wells containing bacteria was scored for yellow wells. […] Pure DMSO was used as a negative control. All doses were performed in triplicate.
The fold increase of revertants relative to the solvent control was determined by dividing the mean number of positive wells at each dose by the solvent control at baseline. The solvent control at baseline was calculated as the mean number of positive wells in the solvent control plus one standard deviation (SD). When an increase of more than twofold relative to the baseline at more than one dose with a dose–response was observed, the sample was classified as positive, whereas when no response > 2 times the baseline and no dose–response was stated, the sample was classified as negative.

[2] = tested on: HepG2 cells; experiment: LDH cytotoxicity assay, HepG2; format: cell-based, human; settings: HepG2, up to 100 µM, 24 h
Experimental: Human liver cancer HepG2 cell line (ATCC HB8065) and rat cardiomyoblast cell line H9c2 (ATCC-CRL1446) were purchased in ATCC (American Type Culture Collection, Manassas, VA, USA). The cells were cultured in standard conditions (37 °C, 5% CO2) in EMEM medium (ATCC, Manassas, VA, USA), supplemented with 10% FBS (Gibco, Waltham, MA, USA) and antibiotics (1% streptomycin/penicillin mixture, Sigma–Aldrich, Darmstadt, Germany) or DMEM high glucose (ATCC, Manassas, VA, USA) supplemented with 10% FBS (Gibco, Waltham, MA, USA) and antibiotics (1% streptomycin/penicillin mixture, Sigma–Aldrich, Darmstadt, Germany), respectively.
Cells were seeded at density 5 × 10^4 cells/per well. After 24 h, KM-568 and reference standard DOX were added to final concentrations of 0.1; 0.5; 1.0; 10; 25; 50; 100; 200 µM. After 24 h incubation, plates were centrifuged (400 g, 2 min) and 50 μL of the supernatant was transferred into the corresponding 96-well plate. […] Next, stop solution was added and absorbance was measured at 490 nm on a multi-well plate reader (Spectra Max iD3, Molecular Devices, San Jose, CA, USA). Cytotoxicity was determined as follows: cytotoxicity (%)=[(compound LDH activity – spontaneous LDH activity)/(maximum LDH activity – spontaneous LDH activity)] × 100. […]

[3] = tested on: hippocampal kindled rats; experiment: Hippocampal kindled rat model; format: in vivo; settings: for Results (protected/tested animals) / Seizure Duration ± SEM / Seizure Score ± SEM (Racine scale): i.p.
Experimental: The electrodes were implanted in brains one week prior to experiments. Then, rats were stimulated with suprathreshold stimuli of 200 µA for 10 sec at 50 Hz every 30 min for 6 h on alternate days until fully kindled. One week after reaching the fully kindled state, the effect of 23 and 27 mg/kg, i.p. of KM-568 in the groups of 5–6 rats were evaluated. The tests were performed at different time points (0–2.25 h) after compound administration. The results were scored as behavioral seizure score (according to Racine scale) and after discharge duration. The protection was noted if the seizure score was 3 or less.

[4] = target: T1, human recombinant TRPV1 receptor expressed in CHO cells (Homo sapiens, UniProt Q8NER1); experiment: TRPV1 functional assay (agonist and antagonist effects); format: cell-based; settings: 10 µM
T1 construct: host or cells: CHO cells
T1 sequence (Q8NER1 whole entry): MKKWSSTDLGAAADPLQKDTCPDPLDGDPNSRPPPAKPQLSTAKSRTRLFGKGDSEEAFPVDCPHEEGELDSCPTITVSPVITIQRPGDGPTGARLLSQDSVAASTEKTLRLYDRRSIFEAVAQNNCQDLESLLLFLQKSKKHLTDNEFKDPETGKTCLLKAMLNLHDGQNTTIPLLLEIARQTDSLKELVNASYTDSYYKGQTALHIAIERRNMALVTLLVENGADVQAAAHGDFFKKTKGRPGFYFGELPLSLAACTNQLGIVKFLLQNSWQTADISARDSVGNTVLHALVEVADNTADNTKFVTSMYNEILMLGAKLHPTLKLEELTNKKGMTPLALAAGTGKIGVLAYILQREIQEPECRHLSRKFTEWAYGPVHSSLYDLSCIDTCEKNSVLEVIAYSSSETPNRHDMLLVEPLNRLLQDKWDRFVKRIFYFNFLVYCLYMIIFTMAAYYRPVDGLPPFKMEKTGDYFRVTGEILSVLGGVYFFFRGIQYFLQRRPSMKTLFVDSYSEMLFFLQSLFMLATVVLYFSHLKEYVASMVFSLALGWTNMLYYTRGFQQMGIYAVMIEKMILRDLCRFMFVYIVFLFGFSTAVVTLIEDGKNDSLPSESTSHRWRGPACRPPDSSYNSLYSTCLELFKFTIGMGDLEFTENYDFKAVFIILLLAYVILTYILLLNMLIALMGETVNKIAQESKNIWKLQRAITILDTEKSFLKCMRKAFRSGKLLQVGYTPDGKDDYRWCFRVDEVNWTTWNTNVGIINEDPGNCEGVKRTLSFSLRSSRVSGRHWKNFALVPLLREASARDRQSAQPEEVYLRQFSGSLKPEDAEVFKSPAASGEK
Experimental: In order to identify molecular mechanism of action, KM-568 was tested at 10 µM in three radioligand binding assays: rat cerebral cortex GABA receptor non-selective agonist radioligand, AMPA (α-amino-3-hydroxy-5-methyl-4-isoxazolepropionic acid) receptor agonist radioligand, and NMDA (N-methyl-D-aspartate) receptor antagonist radioligand as well as one functional assay involving a human recombinant TRPV1 receptor expressed in CHO cells (agonist and antagonist effects).
Tests were performed by Eurofins Cerep (Eurofins CEREP SA, Celle-Lévescault, France) as a commercial service. In radioligand assays, rat cerebral cortex GABA receptor as well as rat cerebral cortex AMPA (α-amino-3-hydroxy-5-methyl-4-isoxazolepropionic acid) and NMDA (N-methyl-D-aspartate) receptors with 10 nM [^3H]GABA, 8 nM [^3H]AMPA, and 5 nM [^3H]CGP39653, respectively, were used. The results were detected by means of scintillation counting. In functional assays, a human recombinant TRPV1 receptor expressed in Chinese hamster ovary (CHO) cells with 1 µM capsaicin or 30 nM capsazepine were used. Fluorimetry was used as a detection method.

## C[C@H](O)CNC(=O)/C=C/c1ccccc1 [KM-568, S(+)-(2E)-N-(2-hydroxypropyl)-3-phenylprop-2-enamide]
[1]
  fold induction at 90 min, 0.1 mM: 1
  fold induction at 90 min, 0.2 mM: 0.7
  fold induction at 90 min, 0.5 mM: 0.7
[2]
  cytotoxic effect, LDH assay: no cytotoxic effect
[3]; Rattus norvegicus, ip
  ED50: 24.2 mg/kg
[3]; 23 mg/kg, 15 min
  Results (protected/tested animals): 2/6
  Seizure Duration ± SEM: 55.67 ± 6.44 s
  Seizure Score ± SEM (Racine scale): 3.67 ± 0.84
[3]; 23 mg/kg, 45 min
  Seizure Duration ± SEM: 65.83 ± 14.61 s
  Seizure Score ± SEM (Racine scale): 5.0 ± 0.0
[3]; 23 mg/kg, 75 min
  Seizure Duration ± SEM: 56.67 ± 6.96 s
  Seizure Score ± SEM (Racine scale): 5.0 ± 0.0
[3]; 23 mg/kg, 100 min
  Seizure Duration ± SEM: 57.83 ± 9.27 s
  Seizure Score ± SEM (Racine scale): 5.0 ± 0.0
[3]; 23 mg/kg, 135 min
  Seizure Duration ± SEM: 55.17 ± 9.48 s
  Seizure Score ± SEM (Racine scale): 5.0 ± 0.0
[3]; 27 mg/kg, 15 min
  Results (protected/tested animals): 4/5
  Seizure Duration ± SEM: 50.4 ± 3.08 s
  Seizure Score ± SEM (Racine scale): 1.8 ± 0.97
[3]; 27 mg/kg, 45 min
  Seizure Score ± SEM (Racine scale): 4.2 ± 0.80
[3]; 27 mg/kg, 75 min
  Seizure Duration ± SEM: 70.6 ± 27.57 s
  Seizure Score ± SEM (Racine scale): 3.4 ± 0.98
[3]; 27 mg/kg, 100 min
  Seizure Duration ± SEM: 62.5 ± 10.71 s
  Seizure Score ± SEM (Racine scale): 5.0 ± 0.0
[3]; 27 mg/kg, 135 min
  Seizure Duration ± SEM: 95.0 ± 17.78 s
  Seizure Score ± SEM (Racine scale): 5.0 ± 0.0
[4]
  TRPV1 agonist effect: No significant effects
  TRPV1 antagonist effect: No significant effects
